# Measurements reported in the supplement of paper PMC11061612.
# Assays:
# [1] = test system: NCI-H727 (Other Solid Carcinomas); assay: combination Emax (second highest fraction inhibited in the dose matrix, 72 h); higher = more inhibition; extreme values may be limits of the assay
# Outline: (§1)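 After 24 hours at 37°C and 5% CO2 in 1536-well plates, cells in DMEM/F12 or RPMI plus 10% FBS received two-drug dose matrices for 72 hours. Viability came from CellTiter-Glo 2.0 luminescence and was scaled as inhibition, anchored at 0 by vehicle wells and at 1 by blank wells. Combination Emax is taken as the second-highest inhibition in the matrix, and Bliss excess as the observed combination effect less EA + EB − EA·EB, with EA and EB the single-agent effects.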
# [2] = test system: C-4-I (Cervical Carcinoma); assay: as above
# Outline: as §1
# [3] = test system: EoL-1-cell (Acute Myeloid Leukemia); assay: as above
# Outline: as §1
# UACC-62 (Melanoma) = assay: as above
# Outline: as §1
# [4] = test system: OVCAR-4 (Ovarian Carcinoma); assay: as above
# Outline: as §1
# [5] = test system: AMO-1 (Plasma Cell Myeloma); assay: as above
# Outline: as §1
# [6] = test system: MLMA (Other Blood Carcinomas); assay: as above
# Outline: as §1
# [7] = test system: KMOE-2 (Acute Myeloid Leukemia); assay: as above
# Outline: as §1
# [8] = test system: TE-1 (Esophageal Squamous Cell Carcinoma); assay: as above
# Outline: as §1
# [9] = test system: Hs-766T (Pancreatic Carcinoma); assay: as above
# Outline: as §1
# TK10 (Kidney Carcinoma) = assay: as above
# Outline: as §1
# D-263MG (Glioblastoma) = assay: as above
# Outline: as §1
# [10] = test system: BT-549 (Breast Carcinoma); assay: as above
# Outline: as §1
# [11] = test system: SCC-15 (Oral Cavity Carcinoma); assay: as above
# Outline: as §1
# [12] = test system: SW13 (Other Solid Carcinomas); assay: as above
# Outline: as §1
# [13] = test system: NCI-H358 (Lung Adenocarcinoma); assay: as above
# Outline: as §1
# [14] = test system: SU8686 (Pancreatic Carcinoma); assay: as above
# Outline: as §1
# [15] = test system: EFM-19 (Breast Carcinoma); assay: as above
# Outline: as §1
# [16] = test system: OE19 (Esophageal Adenocarcinoma); assay: as above
# Outline: as §1
# [17] = test system: Caov-4 (Ovarian Carcinoma); assay: Bliss excess, mean over the matrix (fraction); higher = more synergy;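 also: after 72 h of two-drug dosing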
# Outline: as §1
SMILES,combination Emax [1],combination Emax [2],combination Emax [3],combination Emax (UACC-62 (Melanoma)),combination Emax [4],combination Emax [5],combination Emax [6],combination Emax [7],combination Emax [8],combination Emax [9],combination Emax (TK10 (Kidney Carcinoma)),combination Emax (D-263MG (Glioblastoma)),combination Emax [10],combination Emax [11],combination Emax [12],combination Emax [13],combination Emax [14],combination Emax [15],combination Emax [16],Bliss excess [17]
"Cn1cnc2c(F)c(Nc3ccc(Br)cc3Cl)c(C(=O)NOCCO)cc21 [Selumetinib] + C[C@@H]1COCCN1C2=NC(=NC(=C2)C3(CC3)[S@](=N)(=O)C)C4=C5C=CNC5=NC=C4 [AZD6738] (first compound max 10 µM, 7x7, partner max 10 µM)",0.652,0.908,1,0.803,0.532,0.885,0.596,1,0.585,0.567,0.573,0.359,0.464,0.435,0.628,0.586,0.113,0.138,0.606,-0.0221
"CC(=O)Nc1cccc(-n2c(=O)n(C3CC3)c(=O)c3c(Nc4ccc(I)cc4F)n(C)c(=O)c(C)c32)c1 [Trametinib] + Cc1nc(-c2cn3c(n2)-c2ccc(-c4cnn(C(C)(C)C(N)=O)c4)cc2OCC3)n(C(C)C)n1 [Taselisib] (first compound max 1 µM, 7x7, partner max 10 µM)",0.988,0.94,1,0.996,0.518,0.812,0.661,1,0.75,0.773,0.769,0.943,0.497,1,0.929,0.961,0.481,0.665,0.97,0.0567
"CC1(C)CCC(CN2CCN(c3ccc(C(=O)NS(=O)(=O)c4ccc(NCC5CCOCC5)c([N+](=O)[O-])c4)c(Oc4cnc5[nH]ccc5c4)c3)CC2)=C(c2ccc(Cl)cc2)C1 [Venetoclax] + C1CN(CCC1(C(=O)N[C@@H](CCO)C2=CC=C(C=C2)Cl)N)C3=NC=NC4=C3C=CN4 [Capivasertib] (first compound max 1 µM, 7x7, partner max 3 µM)",0.482,0.235,1,0.392,0.1,0.76,0.866,0.581,0.162,0.225,0.339,0.202,0.239,0.226,0.254,0.33,0.059,0.489,0.306,-0.0458
"CC1(C)CCC(CN2CCN(c3ccc(C(=O)NS(=O)(=O)c4ccc(NCC5CCOCC5)c([N+](=O)[O-])c4)c(Oc4cnc5[nH]ccc5c4)c3)CC2)=C(c2ccc(Cl)cc2)C1 [Venetoclax] + C=CCn1c(=O)c2cnc(Nc3ccc(N4CCN(C)CC4)cc3)nc2n1-c1cccc(C(C)(C)O)n1 [AZD1775] (first compound max 1 µM, partner max 1 µM)",0.689,0.872,1,0.578,0.588,0.921,0.945,0.966,0.603,0.53,0.591,0.808,0.778,0.327,0.289,0.798,0.107,0.489,0.223,0.0534
"CC1(C)CCC(CN2CCN(c3ccc(C(=O)NS(=O)(=O)c4ccc(NCC5CCOCC5)c([N+](=O)[O-])c4)c(Oc4cnc5[nH]ccc5c4)c3)CC2)=C(c2ccc(Cl)cc2)C1 [Venetoclax] + CCN(CCO)CCCOc1ccc2c(Nc3cc(CC(=O)Nc4cccc(F)c4)[nH]n3)ncnc2c1 [AZD2811] (first compound max 1 µM, 7x7, partner max 1 µM)",0.317,0.269,1,0.28,0.333,0.816,0.841,0.293,0.298,0.291,0.16,0.323,0.336,0.295,0.402,0.276,0.158,0.541,0.779,-0.0091
"CC1(C)CCC(CN2CCN(c3ccc(C(=O)NS(=O)(=O)c4ccc(NCC5CCOCC5)c([N+](=O)[O-])c4)c(Oc4cnc5[nH]ccc5c4)c3)CC2)=C(c2ccc(Cl)cc2)C1 [Venetoclax] + CN(C)CCCOc1ccc(-c2ccc3ncc4c(c3c2)n(C2CCOCC2)c(=O)n4C)cn1 [AZD0156] (first compound max 1 µM, 7x7, partner max 1 µM)",0.317,0.269,0.986,0.487,0.173,0.814,0.93,0.207,0.098,0.41,0.304,0.171,0.179,0.245,0.465,0.325,0.152,0.546,0.281,-0.0256
"CC1(C)CCC(CN2CCN(c3ccc(C(=O)NS(=O)(=O)c4ccc(NCC5CCOCC5)c([N+](=O)[O-])c4)c(Oc4cnc5[nH]ccc5c4)c3)CC2)=C(c2ccc(Cl)cc2)C1 [Venetoclax] + COc1cc(Nc2ncc3c(n2)-c2ccc(Cl)cc2C(c2c(F)cccc2OC)=NC3)ccc1C(=O)O [Alisertib] (first compound max 1 µM, 7x7, partner max 10 µM)",0.326,0.804,1,0.314,0.344,0.868,0.866,0.928,0.635,0.393,0.35,0.518,0.529,0.378,0.599,0.442,0.117,0.557,0.785,0.0149
"CC1(C)CCC(CN2CCN(c3ccc(C(=O)NS(=O)(=O)c4ccc(NCC5CCOCC5)c([N+](=O)[O-])c4)c(Oc4cnc5[nH]ccc5c4)c3)CC2)=C(c2ccc(Cl)cc2)C1 [Venetoclax] + C[C@@H]1COCCN1C2=NC(=NC(=C2)C3(CC3)[S@](=N)(=O)C)C4=C5C=CNC5=NC=C4 [AZD6738] (first compound max 1 µM, 7x7, partner max 10 µM)",0.616,0.906,1,0.481,0.684,0.904,0.909,0.73,0.543,0.565,0.609,0.515,0.52,0.442,0.472,0.731,0.0868,0.495,0.673,-0.0228
"CC1(C)CCC(CN2CCN(c3ccc(C(=O)NS(=O)(=O)c4ccc(NCC5CCOCC5)c([N+](=O)[O-])c4)c(Oc4cnc5[nH]ccc5c4)c3)CC2)=C(c2ccc(Cl)cc2)C1 [Venetoclax] + C[C@@H](Nc1cc(F)cc(F)c1)c1cc(C(=O)N(C)C)cc2c(=O)cc(N3CCOCC3)oc12 [AZD8186] (first compound max 1 µM, 7x7, partner max 3 µM)",0.274,0.398,1,0.398,0.138,0.842,0.89,0.323,0.217,0.349,0.465,0.142,0.258,0.166,0.128,0.149,0.127,0.412,0.306,-0.0109
"CC1(C)CCC(CN2CCN(c3ccc(C(=O)NS(=O)(=O)c4ccc(NCC5CCOCC5)c([N+](=O)[O-])c4)c(Oc4cnc5[nH]ccc5c4)c3)CC2)=C(c2ccc(Cl)cc2)C1 [Venetoclax] + Cc1cc2ncnn2cc1Nc1ncc2c(n1)n(C1CCOCC1)c(=O)n2C [AZD7648] (first compound max 1 µM, 7x7, partner max 10 µM)",0.25,0.222,0.996,0.221,0.19,0.73,0.86,0.427,0.0373,0.372,0.281,0.179,0.258,0.212,0.302,0.293,0.152,0.417,0.281,-0.0492
"CC1(C)CCC(CN2CCN(c3ccc(C(=O)NS(=O)(=O)c4ccc(NCC5CCOCC5)c([N+](=O)[O-])c4)c(Oc4cnc5[nH]ccc5c4)c3)CC2)=C(c2ccc(Cl)cc2)C1 [Venetoclax] + Cn1cnc2c(F)c(Nc3ccc(Br)cc3Cl)c(C(=O)NOCCO)cc21 [Selumetinib] (first compound max 1 µM, 7x7, partner max 3 µM)",0.601,0.385,1,0.767,0.209,0.806,0.93,0.992,0.245,0.502,0.322,0.119,0.106,0.264,0.317,0.343,0.135,0.232,0.182,0.0087
